Experiment [1] has as its system FCV F9. In words: Effect of 5,7,3′,4′-tetrarydroxyflavon-3-ol C4-C8 dimers on FCV F9 infection of CRFK cells. It counts as cell-based, feline calicivirus (cat kidney CRFK cells). The settings on record: 0.1% dimers, added before, with or after virus (FIG. 6). On the procedure:
50 μl of virus was added to 450 μl complete EMEM to create a 10^−1 viral mix. A series of dilutions made from this mix up to 10^−8. Virus was added to all wells by loading 250 μl from each dilution to the designated wells. 3 well repeats were prepared. Purified 5, 7, 3′, 4′-tetrarydroxyflavon-3-ol C4-C8 dimers was diluted to 0.1% in complete EMEM.
For experiments in which 5, 7, 3′, 4′-tetrarydroxyflavon-3-ol C4-C8 dimers was added before the virus, 5, 7, 3′, 4′-tetrarydroxyflavon-3-ol C4-C8 dimers was diluted to 0.1% using MM (1:100), added to cells and incubated for 1 hour before the virus was added to the cells.
For experiments in which 5, 7, 3′, 4′-tetrarydroxyflavon-3-ol C4-C8 dimers was added simultaneously with the virus, the virus was diluted in 0.1% purified complete EMEM, added to wells, incubated for 1 hour, then complete EMEM was added to the wells.
For experiments in which 5, 7, 3′, 4′-tetrarydroxyflavon-3-ol C4-C8 dimers was added after viral infection, viral dilutions were added to wells, incubated for 1 hour, 0.1% complete EMEM was added to the wells. The medium was changed to complete EMEM after 60 minutes.

In experiment [2] the test system is FCV F9. In words: Effect of quercetin on FCV F9 infection of CRFK cells. The settings on record: 0.1% quercetin, added 1 hour before, with, or 1 hour after virus (FIG. 4). It counts as cell-based, feline calicivirus (cat kidney CRFK cells). On the procedure: 50 μl of the virus was added to 450 μl HBSS making a 10^−1 viral titer mix. A series of dilutions made from this mix up to 10^−8. Virus was added to all wells by loading 250 μl from each dilution to the designated wells, same as for viral titer. 3 well repeats were prepared. Quercetin was prepared at 10% quercetin in DMSO.
For experiments in which quercetin was added before viral infection, the quercetin was diluted to 0.1% using MM (1:100), added to cells, and incubated for 1 hour.
For experiments in which quercetin was added at the same time as viral infection, the virus was diluted in 0.1% quercetin MM/DMSO, added to wells, incubated for 1 hour, and then MM was added.
For experiments in which quercetin was added after viral infection, viral dilutions were added to the cells, incubated for 1 hour, then 0.1% quercetin in MM/DMSO was added. The medium was changed to MM after 60 minutes.

With `Oc1cc(O)c2c(c1)OC(c1ccc(O)c(O)c1)C(O)C2c1c(O)cc(O)c2c1OC(c1ccc(O)c(O)c1)C(O)C2` (centres unmarked) [5,7, 3′, 4′-tetrahydroxyflavan-3-ol C4-C8 dimers], the “effect against FCV infection” value in experiment [1] is “effective against FCV infection comparable to quercetin and better than rutin”.
For `O=c1c(O)c(-c2ccc(O)c(O)c2)oc2cc(O)cc(O)c12` [quercetin, 3, 3′, 4′, 5,7-pentahydroxyfivanone], the “inhibition of FCV F9 infection of CRFK cells” value in experiment [2] is given as “significantly inhibited”.

For the origin of these results see patent publication US20260191924A1, “METHODS AND COMPOSITIONS FOR TREATING VIRAL INFECTIONS” (DST Pharma, Inc., priority 2020, published 2026).
